Kd data for 76 compounds are collected here from US20260373266A1, “PROTEIN DEGRADERS AND USES THEREOF” (KYMERA THERAPEUTICS, INC., priority 2022, published 2026).

SMILES strings stand for the structures.

T1 sequence (Q9Y4B6 1077-1390): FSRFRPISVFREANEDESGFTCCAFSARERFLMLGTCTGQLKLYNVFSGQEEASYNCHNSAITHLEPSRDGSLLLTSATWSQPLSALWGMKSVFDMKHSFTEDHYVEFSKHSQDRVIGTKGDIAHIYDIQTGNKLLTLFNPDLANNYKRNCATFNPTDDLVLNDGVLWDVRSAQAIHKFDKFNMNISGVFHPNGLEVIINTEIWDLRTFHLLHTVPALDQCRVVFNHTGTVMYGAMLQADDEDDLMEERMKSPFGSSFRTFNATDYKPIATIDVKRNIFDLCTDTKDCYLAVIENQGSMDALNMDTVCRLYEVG

The assay has as its target T1, DCAF1 WD40 domain (residues 1077-1390) (Homo sapiens, UniProt Q9Y4B6).
T1 construct: DCAF1 WD40 domain (residues 1077-1390)
Kind of assay: DCAF1 binding assay by SPR (Biacore 8K+), DCAF1-3 KD. Conditions: 25 °C, read-out: DCAF1-3 SPR (KD).
As a reminder, the Kd is the concentration at which binding is half-saturated. In the case of `C=CC(=O)NCc1n[nH]cc1C(=O)N[C@@H](CC(N)=O)c1cccc(Cl)c1` [I-467], the equilibrium dissociation constant (Kd) was more than 200 µM.
For `O[C@@H]1CCCN(c2ccnc(N3CC[C@H]4[C@@H]3CCCN4c3cccc(F)c3)c2)C1` [I-799] the value was more than 200 µM; for `NC(=O)C[C@H](NC(=O)c1n[nH]c2c1NCCC2)c1cccc(Cl)c1` [I-299], more than 200 µM.
For `Fc1cccc(N2C[C@H](F)C[C@@H](Nc3cc(N4CCOCC4)ncn3)C2)c1` [I-135] the value was more than 200 µM.
As for `c1ccc(-n2cnc3cc(N4CCC[C@@H](Nc5cc(N6CCOCC6)ccn5)C4)ccc32)cc1` [I-688], the Kd is more than 200 µM.
For `NCc1ccc(N2CCC[C@@H](Nc3cc(N4CCOCC4)ccn3)C2)cc1` [I-868] the value was less than 10 µM.
For `Fc1cccc(N2C3CC[C@H]2CC[C@H]3Nc2cc(N3CCOCC3)ccn2)c1` (stereo in doubt) [I-80], the Kd is more than 200 µM.
Then `Fc1cccc(N2CCC[C@@H](N(CC(F)F)c3cc(N4CCOCC4)ccn3)C2)c1` [I-257], with more than 200 µM.
For `NC(=O)C[C@H](NC(=O)c1cn[nH]c1-c1ncccc1F)c1cccc(Cl)c1` [I-357] the value was more than 200 µM.
Take `CS(=O)(=O)Cc1ccc(F)c(-c2[nH]ncc2C(=O)N[C@H](CC(N)=O)c2cccc(Cl)c2)c1` [I-532]: the Kd is more than 200 µM.
Then `c1ccc2c(N3CCC[C@@H](Nc4nccc(N5CCOCC5)n4)C3)ccnc2c1` [I-35], with 10 to 100 µM.
Regarding `Cc1ccccc1N1CCC[C@@H](Nc2cc(N3CCOCC3)ncn2)C1` [I-4], the Kd is more than 200 µM.
Then `NCCCCCCCCCCCCCCC1CCN(c2ccnc(N3CC[C@@H]4[C@H]3CCCN4c3cccc(F)c3)c2)CC1` [I-725], with 10 to 100 µM.
Regarding `Fc1cccc(N2CCC[C@@H](Nc3cc(N4CCCCC4)ccn3)C2)c1` [I-503], the Kd is less than 10 µM.
For `Fc1cccc(N2CCC[C@H]3[C@@H]2CCN3c2cc(N3CC4CCC(C4)C3)ccn2)c1` [I-605] the value was 10 to 100 µM.
For `CCC(=O)NC1CCC2(CC1)CCN(c1cccc(N[C@@H]3CCCN(c4cccc(F)c4)C3)c1)CC2` [I-853] the value was less than 10 µM; for `CCCn1cc(N2CCC[C@@H](Nc3cc(N4CCOCC4)ccn3)C2)cn1` [I-694], more than 200 µM.
Then `Cc1ccc([C@H](CC(N)=O)NC(=O)c2cn[nH]c2-c2ccccc2F)cc1` [I-101], with 10 to 100 µM.
In the case of `COc1ncc(N[C@@H]2CCCN(c3cccc(F)c3)C2)cc1N1CCOCC1` [I-558], the Kd was less than 10 µM.
Then `Cc1[nH]nc(C(=O)N[C@@H](CC(N)=O)c2cccc(Cl)c2)c1-c1ccccc1F` [I-230], with more than 200 µM.
For `COCCOCC(=O)c1[nH]cc(C(=O)N[C@@H](CC(N)=O)c2cccc(Cl)c2)c1-c1ccccc1F` [I-556] the value was less than 10 µM; for `Cc1c(F)ccc(F)c1-c1c(C(=O)N[C@@H](CC(N)=O)c2cccc(Cl)c2)c[nH]c1C(=O)c1ccccc1` [I-653], less than 10 µM.
Consider `NC(=O)C[C@H](NC(=O)[C@@H]1CC[C@](O)(c2ccccc2)C1)c1cccc(Cl)c1` [I-444], for which the Kd is more than 200 µM.
For `c1cnc(N2CCC[C@@H](Nc3cc(N4CCOCC4)ccn3)C2)nc1` [I-69] the value was 100 to 200 µM; for `Cc1c(F)ccc(F)c1-c1c(C(=O)NC(CC(N)=O)c2cccc(Cl)c2)cn(C)c1C(=O)COCCOCCOCCOCCOCCN` (stereo not shown) [I-844], less than 10 µM.
For `NC(=O)Cc1ccc(N2CCC[C@@H](Nc3cc(N4CCOCC4)ccn3)C2)cc1` [I-863] the value was more than 200 µM; for `NC(=O)C[C@H](NC(=O)c1cn[nH]c1-c1ccccc1F)c1ccccc1F` [I-602], less than 10 µM; for `Fc1cccc(N2CCC[C@@H](Nc3cc(N4C5CCCC4C5)ccn3)C2)c1` [I-616], less than 10 µM.
For `NC(=O)C[C@H](NS(=O)(=O)c1c[nH]nc1-c1ccccc1F)c1cccc(Cl)c1` [I-252] the value was more than 200 µM; for `O=C1[C@H](Nc2cc(N3CCOCC3)ccn2)CCCN1c1cccc(F)c1` [I-281], more than 200 µM; for `COCCOCCOCCC(c1cc(N2CC3CCC(C3)C2)ccn1)[C@@H]1CCCN(c2cccc(F)c2)C1` (stereo partly shown) [I-615], less than 10 µM.
Consider `c1ccc2c(N3CCC[C@@H](Nc4nccc(N5CCOCC5)n4)C3)cccc2c1` [I-52], for which the Kd is more than 200 µM.
For `Cc1ccc(N2CCOCC2)cc1N[C@@H]1CCCN(c2cccc(F)c2)C1` [I-70] the value was more than 200 µM; for `NC(=O)C[C@H](NC(=O)c1ccc(-c2nc(C3CC3)n[nH]2)cc1)c1cccc(Cl)c1` [I-439], more than 200 µM.
On to `COc1cccc(C(=O)c2[nH]cc(C(=O)N[C@@H](CC(N)=O)c3cccc(Cl)c3)c2-c2c(F)ccc(F)c2C)c1` [I-795], for which the Kd was less than 10 µM.
Then `Cc1ccccc1-c1[nH]ncc1C(=O)N[C@@H](CC(N)=O)c1cccc(Cl)c1` [I-209], with more than 200 µM; and `COc1ccc(N2CCC[C@@H]3[C@H]2CCN3c2cc(N3CC4CC(C4)C3)ccn2)cc1F` [I-722], with more than 200 µM; and `O=C1C[C@@H]([C@@H](NC(=O)c2cn[nH]c2-c2ccccc2F)c2cccc(Cl)c2)CN1` [I-560], with more than 200 µM.
As for `O=CNc1ccc(N2CCC[C@@H]3[C@H]2CCN3c2cc(N3CCCCC3)ccn2)cc1F` [I-761], the Kd was more than 200 µM.
Turning to `NCCNc1cnc(N2CCCCC2)nc1N[C@@H]1CCCN(c2cccc(F)c2)C1` [I-1014], the Kd lay within 10 to 100 µM.
As for `NC(=O)C[C@H](NC(=O)c1cn[nH]c1-c1ccccc1F)c1ccc(C(N)=O)cc1` [I-354], the Kd is more than 200 µM.
As to `Fc1cccc(N2CCC[C@@H](Nc3cc(N4C[C@H]5C[C@@H]4CO5)ncn3)C2)c1` [I-310], the Kd is more than 200 µM.
For `c1ccc2c(c1)nc(N1CCC[C@@H](Nc3cc(N4CCOCC4)ccn3)C1)c1nnnn12` [I-423] the value was more than 200 µM; for `OC[C@@H]1CC[C@H](Nc2cc(N3CCCCC3)ccn2)CN1c1cccc(F)c1` [I-1007], less than 10 µM; for `NC(=O)C[C@H](NC(=O)c1cn[nH]c1-c1ccccc1F)c1cccc(C(N)=O)c1` [I-353], more than 200 µM.
As to `NC(=O)CN(c1cc(N2CCOCC2)ccn1)[C@@H]1CCCN(c2cccc(F)c2)C1` [I-272], the Kd is more than 200 µM.
Then `Fc1cccc(N2CCC[C@@H](Nc3cc(C4=CCOCC4)[nH]n3)C2)c1` [I-609], with more than 200 µM; and `NC(=O)C[C@H](NC(=O)c1c[nH]nc1-c1cc(-c2nnn[nH]2)ccc1F)c1cccc(Cl)c1` [I-293], with more than 200 µM.
For `Fc1cccc(N2CCC[C@@H](Nc3cc(N4CC5CCCC5C4)ccn3)C2)c1` (stereo partly shown) [I-575] the value was less than 10 µM; for `N[C@@H](c1ccccc1)c1ccc(N2CCC[C@@H](Nc3cc(N4CCOCC4)ccn3)C2)cc1` [I-683], 10 to 100 µM.
As to `CCN1CCN(c2ccnc(NC3CCCN(c4cccc(F)c4)C3)n2)CC1` (stereo not shown) [I-24], the Kd is more than 200 µM.
For `Fc1cccc(N2CCCC(n3cnc4nccc(N5CCOCC5)c43)C2)c1` (stereo not shown) [I-324] the value was more than 200 µM.
On to `Fc1cccc(N2CCC[C@@H](Nc3cnnc(N4CCOCC4)c3)C2)c1` [I-381], for which the Kd was more than 200 µM.
For `NC(=O)C[C@H](NC(=O)c1cn[nH]c1-c1ccccc1C(N)=O)c1cccc(Cl)c1` [I-349] the value was 10 to 100 µM.
Then `Fc1cccc(N2CCC[C@H](Nc3cc(N4CCOCC4)ccn3)C2)c1` [I-499], with 10 to 100 µM; and `Fc1cccc(N2CCNC(Cc3cc(N4CCOCC4)ccn3)C2)c1` (stereo not shown) [I-224], with more than 200 µM; and `NC[C@@H]1CCN(c2cccc(F)c2)C[C@@H]1Nc1cc(N2CCCCC2)ccn1` [I-1045], with 100 to 200 µM.
Then `OCCC[C@H]1C[C@@H]2[C@@H](CCCN2c2cccc(F)c2)N1c1cc(N2CCCCC2)ccn1` [I-825], with 10 to 100 µM.
As to `Fc1cccc(N2CCC[C@@H](Nc3cc(N4CC5CC(C5)C4)ccn3)C2)c1` [I-576], the Kd was less than 10 µM.
Then `Fc1cccc(N2CCC[C@@H]3[C@H]2CCN3c2cc(N3CCOCC3)ccn2)c1` [I-189], with 10 to 100 µM; and `Clc1cc(N2CCC[C@@H](Nc3cc(N4CCOCC4)ccn3)C2)nc(C2CC2)n1` [I-679], with more than 200 µM.
Then `Fc1cccc(N2CCC[C@@H]3[C@H]2CCCN3c2cc(N3CCOCC3)ccn2)c1` [I-190], with more than 200 µM; and `NC(=O)C[C@H](NC(=O)c1c[nH]nc1-c1ccc[nH]c1=O)c1cccc(Cl)c1` [I-156], with more than 200 µM.
Then `OC1(c2ccccc2)CCC[C@@H](Nc2cc(N3CCCCC3)ccn2)C1` (stereo partly shown) [I-925], with 100 to 200 µM; and `C[C@H]1CC[C@@H](Nc2cc(N3CCOCC3)ncn2)CN1c1cccc(F)c1` [I-234], with more than 200 µM; and `NC(=O)C[C@H](NC(=O)c1cn[nH]c1[C@@H]1CCCOC1)c1cccc(Cl)c1` [I-346], with more than 200 µM.
`CS(=O)(=O)CN(c1cc(N2CCOCC2)ccn1)[C@@H]1CCCN(c2cccc(F)c2)C1` [I-258]: the dissociation constant Kd is more than 200 µM.
For `Cc1cccc(C)c1-c1[nH]ncc1C(=O)N[C@@H](CC(N)=O)c1cccc(Cl)c1` [I-595] the value was less than 10 µM; for `C=CC(=O)Nc1ccnc(N[C@@H]2CCCN(c3cccc(F)c3)C2)c1` [I-447], 10 to 100 µM; for `CN1CCN(CC2CCN(c3ccnc(N4CC[C@@H]5[C@H]4CCCN5c4cccc(F)c4)c3)CC2)CC1` [I-815], less than 10 µM.
`COCCN1CCN(c2ccnc(N[C@@H]3CCCN(c4cccc(F)c4)C3)n2)CC1` [I-320]: the equilibrium dissociation constant (Kd) was in the range of 10 to 100 µM.
For `Cc1sc2c(c1C)C(c1ccc(Cl)cc1)=N[C@@H](CC(=O)NCCOCCOCCOCCOCCOCCOCCC1CCN(c3ccnc(N4CC[C@@H]5[C@H]4CCCN5c4cccc(F)c4)c3)CC1)c1nnc(C)n1-2` [I-895] the value was 10 to 100 µM; for `c1cc(N2CCC[C@@H](Nc3cc(N4CCOCC4)ncn3)C2)ccn1` [I-6], more than 200 µM.
For `CS(=O)(=O)CCCC(=O)N1CCC[C@@H](Nc2cc(N3CCOCC3)ccn2)C1` [I-768] the value was more than 200 µM; for `CS(=O)(=O)CCc1ccc(F)c(-c2[nH]ncc2C(=O)N[C@H](CC(N)=O)c2cccc(Cl)c2)c1` [I-531], more than 200 µM.
Then `Fc1cccc(N2CCC[C@@H](Nc3cc([C@@H]4CCCCN4)ccn3)C2)c1` [I-124], with more than 200 µM.
